Laboratory results published in US20260176320A1, “MODULATORS OF G-PROTEIN COUPLED RECEPTORS” (priority 2018, published 2026).
Read-outs that look alike come from different tables or passages of the source. Square brackets hold non-standard residues; d marks the D form. Peptide text beside a SMILES is read from it. * marks the point of attachment. X1 = O=C(CSCC(=O)*)NCCN1C(=O)c2ccccc2C1=O; X5 = O=C(CSCC(=O)*)NCCN1CCCC1=O; Aib = CC(C)(N)C(=O)O

Experiments:
Assay type in all cases: cell-based
GLP-1R [1] = target: T1, GLP-1R (Homo sapiens, UniProt P43220); test: HitHunter cAMP assay (GLP-1R); conditions: cAMP; for Emax: read-out: (Emax) GLP-1R
How it was run: (§1)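 Suspension cells (10,000/well) in HBSS with 10 mM HEPES, 625 μM IBMX, 0.2% BSA exposed to 22-point 2-fold agonist series in duplicate for 30 min at room temperature. cAMP measured by antibody immunocompetition with overnight development, luminescence read-out.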

GIP-R = target: T2, GIP-R (Homo sapiens, UniProt P48546); test: HitHunter cAMP assay (GIP-R); conditions: cAMP; for Emax: read-out: (Emax) GIP-R
T2 sequence (P48546 22-466): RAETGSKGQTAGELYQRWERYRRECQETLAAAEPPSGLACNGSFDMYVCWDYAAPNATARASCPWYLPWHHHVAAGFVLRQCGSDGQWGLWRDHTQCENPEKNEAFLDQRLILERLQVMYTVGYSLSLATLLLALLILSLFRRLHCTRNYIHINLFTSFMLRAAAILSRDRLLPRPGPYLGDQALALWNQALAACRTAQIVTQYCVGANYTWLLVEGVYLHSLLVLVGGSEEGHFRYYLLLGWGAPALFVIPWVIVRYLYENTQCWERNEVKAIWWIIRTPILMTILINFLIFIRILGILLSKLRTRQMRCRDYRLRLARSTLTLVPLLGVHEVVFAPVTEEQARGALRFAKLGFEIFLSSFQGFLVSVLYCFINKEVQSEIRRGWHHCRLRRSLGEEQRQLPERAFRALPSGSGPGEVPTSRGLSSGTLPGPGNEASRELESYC
How it was run: as §1

GLP-1R [2] = target: T1, GLP-1R; test: PathHunter β-arrestin assay
How it was run: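 Cells (5,000/well) plated overnight, then exposed to a 22-point 2-fold agonist dilution series in medium with 0.2% BSA for 90 min at 37 °C, 5% CO2. PathHunter detection reagent added; after 3 h at room temperature in the dark, luminescence read.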

[3] = Table 3, read-out: EC50 GLP-1R/nM
[4] = Table 3A, read-out: EC50 GLP-1R/nM
[5] = Table 3, read-out: EC50 GIP-R/nM
[6] = Table 3A, read-out: EC50 GIP-R/nM
[7] = PathHunter β-arrestin assay, read-out: β-arrestin activity EC50

T1 sequence (P43220 24-463): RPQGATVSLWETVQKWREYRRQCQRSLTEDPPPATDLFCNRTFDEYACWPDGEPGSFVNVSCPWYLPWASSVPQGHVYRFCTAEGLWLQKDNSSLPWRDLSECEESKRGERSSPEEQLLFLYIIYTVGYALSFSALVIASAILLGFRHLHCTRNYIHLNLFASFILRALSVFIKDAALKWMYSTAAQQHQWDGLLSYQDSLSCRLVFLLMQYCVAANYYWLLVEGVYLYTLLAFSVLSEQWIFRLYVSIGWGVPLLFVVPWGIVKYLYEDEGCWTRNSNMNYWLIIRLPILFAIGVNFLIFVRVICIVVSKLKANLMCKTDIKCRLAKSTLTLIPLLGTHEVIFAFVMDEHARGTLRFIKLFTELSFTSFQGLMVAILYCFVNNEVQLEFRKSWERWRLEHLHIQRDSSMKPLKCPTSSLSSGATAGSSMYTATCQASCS

Compound | EC50 (GLP-1R [1]; EC50 GLP-1R/nM, Table 3) [nM] | EC50 (GLP-1R [1]; EC50 GLP-1R/nM, Table 3A) [nM] | Emax (GLP-1R [1]; Table 3) [%] | Emax (GLP-1R [1]; Table 3A) [%] | EC50 (GIP-R; EC50 GIP-R/nM, Table 3) [nM] | EC50 (GIP-R; EC50 GIP-R/nM, Table 3A) [nM] | Emax (GIP-R; Table 3) [%] | Emax (GIP-R; Table 3A) [%] | EC50 (GLP-1R [2]) [nM] | EC50 (GLP-1R [1]; [3]) [nM] | EC50 (GLP-1R [1]; [4]) [nM] | EC50 (GIP-R; [5]) [nM] | EC50 (GIP-R; [6]) [nM] | Emax at 1 µM (GIP-R; read-out: (Emax) GIP-R at 1 μM, Table 3, at 1 μM) [%] | EC50 (GLP-1R [2]; [7]) [nM] | EC50 (GIP-R; read-out: EC50 GIP-R/nM, Table 3) [nM] | EC50 (GIP-R; read-out: EC50 GIP-R/nM, Table 3A) [nM]
CC[C@H](C)[C@H](NC(=O)[C@H](CO)NC(=O)[C@H](Cc1ccc(O)cc1)NC(=O)[C@H](CC(=O)O)NC(=O)[C@H](CO)NC(=O)[C@@H](NC(=O)[C@H](Cc1ccccc1)NC(=O)[C@@H](NC(=O)CNC(=O)[C@H](CCC(=O)O)NC(=O)CCCC(=O)NCCN1C(=O)c2ccccc2C1=O)[C@@H](C)O)[C@@H](C)O)C(=O)N[C@@H](Cc1ccc(O)cc1)C(=O)N[C@@H](CC(C)C)C(=O)N[C@@H](CC(=O)O)C(=O)N[C@@H](CCCCN)C(=O)N[C@@H](CCC(N)=O)C(=O)N[C@@H](C)C(=O)N[C@@H](C)C(=O)NC(C)(C)C(=O)N[C@@H](CCC(=O)O)C(=O)N[C@@H](Cc1ccccc1)C(=O)N[C@H](C(=O)N[C@@H](CC(N)=O)C(=O)N[C@@H](Cc1c[nH]c2ccccc12)C(=O)N[C@@H](CC(C)C)C(=O)N[C@@H](CC(C)C)C(=O)N[C@@H](C)C(=O)NCC(=O)NCC(=O)N1CCC[C@H]1C(=O)N[C@@H](CO)C(=O)N[C@@H](CO)C(=O)NCC(=O)N[C@@H](C)C(=O)N1CCC[C@H]1C(=O)N1CCC[C@H]1C(=O)N1CCC[C@H]1C(=O)N[C@@H](CO)C(=O)N[C@@H](CCCCN)C(N)=O)C(C)C [Compound 188] | 10 to 100 | 10 to 100 | 101 | 101 | 1 to 10 | 1 to 10 | 107 | 107 | > 1000 |  |  |  |  |  |  |  | 
CC[C@H](C)[C@H](NC(=O)[C@H](CO)NC(=O)[C@H](Cc1ccc(O)cc1)NC(=O)[C@H](CC(=O)O)NC(=O)[C@H](CO)NC(=O)[C@@H](NC(=O)[C@H](Cc1ccccc1)NC(=O)[C@@H](NC(=O)CNC(=O)[C@H](CCC(=O)O)NC(=O)CSCC(=O)NCCN1CCCC1=O)[C@@H](C)O)[C@@H](C)O)C(=O)N[C@@H](Cc1ccc(O)cc1)C(=O)N[C@@H](CC(C)C)C(=O)N[C@@H](CC(=O)O)C(=O)N[C@@H](CCCNC(=N)N)C(=O)N[C@@H](CCC(N)=O)C(=O)N[C@@H](C)C(=O)N[C@@H](C)C(=O)NC(C)(C)C(=O)N[C@@H](CCC(=O)O)C(=O)N[C@@H](Cc1ccccc1)C(=O)N[C@H](C(=O)N[C@@H](CC(N)=O)C(=O)N[C@@H](Cc1c[nH]c2ccccc12)C(=O)N[C@@H](CC(C)C)C(=O)N[C@@H](CC(C)C)C(=O)N[C@@H](C)C(=O)NCC(=O)NCC(=O)N1CCC[C@H]1C(=O)N[C@@H](CO)C(=O)N[C@@H](CO)C(=O)NCC(=O)N[C@@H](C)C(=O)N1CCC[C@H]1C(=O)N1CCC[C@H]1C(=O)N1CCC[C@H]1C(=O)N[C@@H](CO)C(N)=O)C(C)C [Compound 189] (X5-EGTFTSDYSIYLDRQAA[Aib]EFVNWLLAGGPSSGAPPPS-NH2) |  |  | 94 | 94 |  |  |  |  |  | 1 to 10 | 1 to 10 | > 1000 | > 1000 | 4.5 | > 1000 |  | 
CC[C@H](C)[C@H](NC(=O)[C@H](CO)NC(=O)[C@H](Cc1ccc(O)cc1)NC(=O)[C@H](CC(=O)O)NC(=O)[C@H](CO)NC(=O)[C@@H](NC(=O)[C@H](Cc1ccccc1)NC(=O)[C@@H](NC(=O)CNC(=O)[C@H](CCC(=O)O)NC(=O)CSCC(=O)NCCN1C(=O)c2ccccc2C1=O)[C@@H](C)O)[C@@H](C)O)C(=O)N[C@@H](Cc1ccc(O)cc1)C(=O)N[C@@H](CC(C)C)C(=O)N[C@@H](CC(=O)O)C(=O)N[C@@H](CCCNC(=N)N)C(=O)N[C@@H](CCC(N)=O)C(=O)N[C@@H](C)C(=O)N[C@@H](C)C(=O)NC(C)(C)C(=O)N[C@@H](CCC(=O)O)C(=O)N[C@@H](Cc1ccccc1)C(=O)N[C@H](C(=O)N[C@@H](CC(N)=O)C(=O)N[C@@H](Cc1c[nH]c2ccccc12)C(=O)N[C@@H](CC(C)C)C(=O)N[C@@H](CC(C)C)C(=O)N[C@@H](C)C(=O)NCC(=O)NCC(=O)N1CCC[C@H]1C(=O)N[C@@H](CO)C(=O)N[C@@H](CO)C(=O)NCC(=O)N[C@@H](C)C(=O)N1CCC[C@H]1C(=O)N1CCC[C@H]1C(=O)N1CCC[C@H]1C(=O)N[C@@H](CO)C(N)=O)C(C)C [Compound 190] (X1-EGTFTSDYSIYLDRQAA[Aib]EFVNWLLAGGPSSGAPPPS-NH2) | 1 to 10 | 1 to 10 | 97 to 119 | 97 to 119 |  |  | 88 to 119 | 88 to 119 | > 1000 |  |  |  |  |  |  | 0.1 to 10 | 0.1 to 10
CC[C@H](C)[C@H](NC(=O)[C@H](CO)NC(=O)[C@H](Cc1ccc(O)cc1)NC(=O)[C@H](CC(=O)O)NC(=O)[C@H](CO)NC(=O)[C@@H](NC(=O)[C@H](Cc1ccccc1)NC(=O)[C@@H](NC(=O)CNC(=O)[C@H](CCC(=O)O)NC(=O)CCCCC(=O)NCCN1C(=O)CSC1=O)[C@@H](C)O)[C@@H](C)O)C(=O)N[C@@H](Cc1ccc(O)cc1)C(=O)N[C@@H](CC(C)C)C(=O)N[C@@H](CC(=O)O)C(=O)N[C@@H](CCCCN)C(=O)N[C@@H](CCC(N)=O)C(=O)N[C@@H](C)C(=O)N[C@@H](C)C(=O)NC(C)(C)C(=O)N[C@@H](CCC(=O)O)C(=O)N[C@@H](Cc1ccccc1)C(=O)N[C@H](C(=O)N[C@@H](CC(N)=O)C(=O)N[C@@H](Cc1c[nH]c2ccccc12)C(=O)N[C@@H](CC(C)C)C(=O)N[C@@H](CC(C)C)C(=O)N[C@@H](C)C(=O)NCC(=O)NCC(=O)N1CCC[C@H]1C(=O)N[C@@H](CO)C(=O)N[C@@H](CO)C(=O)NCC(=O)N[C@@H](C)C(=O)N1CCC[C@H]1C(=O)N1CCC[C@H]1C(=O)N1CCC[C@H]1C(=O)N[C@@H](CO)C(=O)N[C@@H](CCCCN)C(N)=O)C(C)C [Compound 191] |  |  | 97 | 97 |  |  | 68 | 68 |  | 1 to 10 | 1 to 10 | 10 to 100 | 10 to 100 |  | > 1000 |  | 
CC[C@H](C)[C@H](NC(=O)[C@H](CO)NC(=O)[C@H](Cc1ccc(O)cc1)NC(=O)[C@H](CC(=O)O)NC(=O)[C@H](CO)NC(=O)[C@@H](NC(=O)[C@H](Cc1ccccc1)NC(=O)[C@@H](NC(=O)CNC(=O)[C@H](CCC(=O)O)NC(=O)CCC(=O)NCCN1C(=O)CSC1=O)[C@@H](C)O)[C@@H](C)O)C(=O)N[C@@H](Cc1ccc(O)cc1)C(=O)N[C@@H](CC(C)C)C(=O)N[C@@H](CC(=O)O)C(=O)N[C@@H](CCCCN)C(=O)N[C@@H](CCC(N)=O)C(=O)N[C@@H](C)C(=O)N[C@@H](C)C(=O)NC(C)(C)C(=O)N[C@@H](CCC(=O)O)C(=O)N[C@@H](Cc1ccccc1)C(=O)N[C@H](C(=O)N[C@@H](CC(N)=O)C(=O)N[C@@H](Cc1c[nH]c2ccccc12)C(=O)N[C@@H](CC(C)C)C(=O)N[C@@H](CC(C)C)C(=O)N[C@@H](C)C(=O)NCC(=O)NCC(=O)N1CCC[C@H]1C(=O)N[C@@H](CO)C(=O)N[C@@H](CO)C(=O)NCC(=O)N[C@@H](C)C(=O)N1CCC[C@H]1C(=O)N1CCC[C@H]1C(=O)N1CCC[C@H]1C(=O)N[C@@H](CO)C(=O)N[C@@H](CCCCN)C(N)=O)C(C)C [Compound 192] |  |  | 111 | 111 |  |  | 63 | 63 |  | 0.1 to 1 | 0.1 to 1 | 10 to 100 | 10 to 100 |  | > 1000 |  | 
CC[C@H](C)[C@H](NC(=O)[C@H](CO)NC(=O)[C@H](Cc1ccc(O)cc1)NC(=O)[C@H](CC(=O)O)NC(=O)[C@H](CO)NC(=O)[C@@H](NC(=O)[C@H](Cc1ccccc1)NC(=O)[C@@H](NC(=O)CNC(=O)[C@H](CCC(=O)O)NC(=O)CCCC(=O)NCCN1C(=O)CSC1=O)[C@@H](C)O)[C@@H](C)O)C(=O)N[C@@H](Cc1ccc(O)cc1)C(=O)N[C@@H](CC(C)C)C(=O)N[C@@H](CC(=O)O)C(=O)N[C@@H](CCCCN)C(=O)N[C@@H](CCC(N)=O)C(=O)N[C@@H](C)C(=O)N[C@@H](C)C(=O)NC(C)(C)C(=O)N[C@@H](CCC(=O)O)C(=O)N[C@@H](Cc1ccccc1)C(=O)N[C@H](C(=O)N[C@@H](CC(N)=O)C(=O)N[C@@H](Cc1c[nH]c2ccccc12)C(=O)N[C@@H](CC(C)C)C(=O)N[C@@H](CC(C)C)C(=O)N[C@@H](C)C(=O)NCC(=O)NCC(=O)N1CCC[C@H]1C(=O)N[C@@H](CO)C(=O)N[C@@H](CO)C(=O)NCC(=O)N[C@@H](C)C(=O)N1CCC[C@H]1C(=O)N1CCC[C@H]1C(=O)N1CCC[C@H]1C(=O)N[C@@H](CO)C(=O)N[C@@H](CCCCN)C(N)=O)C(C)C [Compound 193] |  |  | 117 | 117 |  |  | 44 | 44 |  | 1 to 10 | 1 to 10 | 10 to 100 | 10 to 100 |  | > 1000 |  | 
